These are literature values, as cited in PMC10544023, “Oxetanes in Drug Discovery Campaigns” (Journal of Medicinal Chemistry, 2023).

One may read the IC50 as the point on the concentration scale where inhibition reaches its midpoint.

The test system of data set [1] is KIT D816V. Also on record: method as in ref 49 = [49]; a Liang J.; Jakalian A.; Lambrecht M. J.; Larouche-Gauthier R.; Huestis M.; Ung M. U.; Wang X.; Yadav A.; Zbieg J. R.; Broccatelli F. Lactams as Cbl-b Inhibitors , WO Patent Appl. no. WO20221.
Data set [2] deals with PDGFRα D842V. Also on record: method as in ref 49 = [49]; a Liang J.; Jakalian A.; Lambrecht M. J.; Larouche-Gauthier R.; Huestis M.; Ung M. U.; Wang X.; Yadav A.; Zbieg J. R.; Broccatelli F. Lactams as Cbl-b Inhibitors , WO Patent Appl. no. WO20221.
The conditions of data set [3]: amine nitrogen; ref 37a.
The test system of data set [4] is hERG. Also on record: method as in PMID 24900569. Particulars: ref 37a.
Data set [5] deals with LRRK2 (WT). Also on record: method as in ref 49 = [49]; a Liang J.; Jakalian A.; Lambrecht M. J.; Larouche-Gauthier R.; Huestis M.; Ung M. U.; Wang X.; Yadav A.; Zbieg J. R.; Broccatelli F. Lactams as Cbl-b Inhibitors , WO Patent Appl. no. WO20221. Particulars: read-out: LRRK2 inhibitor (WT) IC50.
The subject of data set [6] is Cbl-b. Also on record: method as in ref 49 = [49]; a Liang J.; Jakalian A.; Lambrecht M. J.; Larouche-Gauthier R.; Huestis M.; Ung M. U.; Wang X.; Yadav A.; Zbieg J. R.; Broccatelli F. Lactams as Cbl-b Inhibitors , WO Patent Appl. no. WO20221. Particulars: read-out: Cbl-b inhibitor IC50.
In data set [7] the test system is LRRK2. Also on record: method as in ref 49 = [49]; a Liang J.; Jakalian A.; Lambrecht M. J.; Larouche-Gauthier R.; Huestis M.; Ung M. U.; Wang X.; Yadav A.; Zbieg J. R.; Broccatelli F. Lactams as Cbl-b Inhibitors , WO Patent Appl. no. WO20221. Particulars: read-out: LRRK2 inhibitor IC50.
Data set [8] has as its system c-KIT (V654A). Also on record: method as in ref 49 = [49]; a Liang J.; Jakalian A.; Lambrecht M. J.; Larouche-Gauthier R.; Huestis M.; Ung M. U.; Wang X.; Yadav A.; Zbieg J. R.; Broccatelli F. Lactams as Cbl-b Inhibitors , WO Patent Appl. no. WO20221.
The subject of data set [9] is T- versus B-cells. Also on record: method as in PMID 32292557. Particulars: selectivity of T- versus B-cells; ref 35a.
Data set [10] concerns rat. Also on record: method as in ref 33a = [33]; a Crawford J. J.; Zhang H. In ACS Symposium Series; American Chemical Society , 2019; Vol. 1332 , pp 239 – 266 . b For an overview of all clinical trials and further investigations, see: Drug Bank. Particulars: rat pilot study; ref 33a.
The subject of data set [11] is dog. Also on record: method as in ref 33a = [33]; a Crawford J. J.; Zhang H. In ACS Symposium Series; American Chemical Society , 2019; Vol. 1332 , pp 239 – 266 . b For an overview of all clinical trials and further investigations, see: Drug Bank. Particulars: dog pilot study; ref 33a.
In data set [12] the test system is EZH2. Also on record: method as in ref 49 = [49]; a Liang J.; Jakalian A.; Lambrecht M. J.; Larouche-Gauthier R.; Huestis M.; Ung M. U.; Wang X.; Yadav A.; Zbieg J. R.; Broccatelli F. Lactams as Cbl-b Inhibitors , WO Patent Appl. no. WO20221. Particulars: read-out: EZH2 inhibitor IC50.

Some results are limits rather than exact numbers.

Consider `C[C@](N)(c1ccc(F)cc1)c1cnc(N2CCN(c3ncnn4cc(-c5cnn(CC6COC6)c5)cc34)CC2)nc1` [Bluprint Medicines WO 2020/210293 A1], for which the IC50 in data set [1] and in data set [2] was less than 4.5 nM throughout. On to `CCNC(=O)Nc1ccc(-c2nc3c(c(N4CCOC[C@@H]4C)n2)CCN(C2COC2)C3)cc1` [GDC-0349], for which the pKaH in data set [3] was 5.0. In addition, in data set [4], the half-inhibitory concentration (IC50) is more than 100000 nM. `C[C@H](C(F)F)n1cc(Nc2ncc3cc(C#N)n([C@H]4COC[C@@H]4C)c3n2)c(OC2COC2)n1` [Sanofi WO 2022/263472 A1]: the IC50 in data set [5] is 1 nM. Turning to `CC(C)[C@@H]1CN(C)CCN1Cc1cc2c(c(C(F)(F)F)c1)CN(c1cc(C3(Cc4nncn4C)COC3)cc(OC3CCCC3)n1)C2=O` [Genentech WO 2022/169997 A1], the IC50 in data set [6] was 5.5 nM. Regarding `CCN1CCN(c2ccc(Nc3nc(-c4ccc5cn[nH]c5c4)cn4ccnc34)cc2)CC1` [4-ethyl-piperazine], the “calcd pKaH” value (piperazine analogues of entospletinib, ref 35a) was 8.0. With `O=C1NCCCOc2ccc3[nH]nc(c3c2)-c2cc(cc(N3CCC4(COC4)C3)c2)CO1`, the IC50 in [7] is less than 10 nM. For `Cn1ncc(-c2ccc(CNc3cc(-c4cnc5cc(OCCN6CC7(COC7)C6)ccn45)ncn3)cc2)n1` [Merck WO 2021/013864 A1], in data set [8], the IC50 is 3.3 nM. Regarding `c1cn2cc(-c3ccc4cn[nH]c4c3)nc(Nc3ccc(N4CCN(C5COC5)CC4)cc3)c2n1` [oxetane on the 4-position], the T/B ratio in data set [9] is 10.

Take `CN1CCN(c2ccc(Nc3cc(-c4cccc(N5CCc6c(sc7c6CC(C)(C)C7)C5=O)c4CO)cn(C)c3=O)nc2)CC1` [compound 4]: the hepatotoxicity entry in [10] and in data set [11] was “high hepatotoxicity” throughout. As to `Cc1ccc2ccc(N[C@H]3CC[C@H](CNc4ncc(C(F)(F)C(=O)NC5COC5)cn4)CC3)nc2c1Cl` [Novartis WO 2022/033492 A1], in data set [12], the IC50 is less than 10 nM. `C[C@H]1CN(C2COC2)CCN1c1ccc(Nc2cc(-c3ccnc(N4CCn5c(cc6c5CC(C)(C)C6)C4=O)c3CO)cn(C)c2=O)nc1` [Fenebrutinib, fenebrutinib]: under “piperazine ring”, the “pKaH (predicted)” value is on record as 6.3.
